From PMC3681807 (Neuropharmacology, 2013)
“Also recorded” adds a separate entry of the source. Read-outs that look alike come from different tables or passages of the source.

Key:
DAT/SERT = details: ref Simmler et al., 2013; cited from earlier work
Male Wistar rats [1] = test: stereotypy scores after non-contingent administration; assay type: in vivo, rat
Male Wistar rats [2] = test: progressive-ratio dose-response self-administration testing; assay type: in vivo, rat; details: for number of correct lever presses (M) / post-reinforcement pause duration (M) / time to reach breakpoint: PR; for number of correct lever presses (M) / post-reinforcement pause duration (M): 1st 3 hours of session
Male Wistar rats [3] = test: body temperature by radiotelemetry after non-contingent s.c. administration; assay type: in vivo, rat; details: for effect on body temperature: 0–5.6 mg/kg s.c., MDPV at TA about 23 °C
monoamine release = details: ref Baumann et al., 2013, Simmler et al.; cited from earlier work
Male Wistar rats [4] = test: stereotypy after self-administration sessions; assay type: in vivo, rat; details: FR5 dose-response testing
[5] = test system: dopamine transporter (DAT); details: human transporters expressed by HEK 293 cells; ref Simmler et al., 2013; cited from earlier work
[6] = test system: noradrenaline transporter (NET); details: rat synaptosomes; ref Baumann et al., 2013; cited from earlier work
[7] = test system: serotonin transporter (SERT); details: rat synaptosomes; ref Baumann et al., 2013; cited from earlier work
serotonin transporter = serotonin transporter (Homo sapiens, UniProt P31645); test: biochemical
[8] = target: noradrenergic transporter (Homo sapiens, UniProt P23975); test: biochemical
Male Wistar rats [9] = test: fixed-ratio; assay type: in vivo, rat
Sprague-Dawley rats = details: s.c.; ref Baumann et al., 2013; cited from earlier work
[10] = test system: noradrenaline transporter (NET); details: human transporters expressed by HEK 293 cells; ref Simmler et al., 2013; cited from earlier work
[11] = test system: dopamine transporter (DAT); details: rat synaptosomes; ref Baumann et al., 2013; cited from earlier work
mice = details: i.p.; ref Marusich et al., 2012; cited from earlier work
Male Wistar rats [12] = test: locomotor activity by radiotelemetry after non-contingent s.c. administration; assay type: in vivo, rat; details: for maximal increase of activity over baseline and/or vehicle: lower doses
[13] = test system: serotonin transporter (SERT); details: human transporters expressed by HEK 293 cells; ref Simmler et al., 2013; cited from earlier work
Male Wistar rats [14] = test: intravenous self-administration acquisition; assay type: in vivo, rat; details: for infusion rate (M) / lever discrimination (M): 0.05 mg/kg/inf, FR5, 7 non-food-restricted sessions; for self-administered drug, Max / self-administered drug, Mean: 0.05 mg/kg/infusion i.v., within 10 training sessions; for level of drug intake from session to session: during acquisition
[15] = test system: alpha adrenergic receptors; details: ref Roth et al., 2000, Rothman et al., 2001, 2003; cited from earlier work
[16] = 1.0 mg/kg s.c., MDPV 180-min bin, METH 30- to 120-min bins
[17] = FR5, per-infusion dose 0.01 mg/kg
[18] = FR5, per-infusion dose 0.05 mg/kg
[19] = FR5, per-infusion dose 0.10 mg/kg
[20] = FR5, per-infusion dose 0.50 mg/kg
[21] = 1.0 mg/kg s.c., MDPV 30- and 60-min bins, METH 30-, 90- and 120-min bins
[22] = 5.6 mg/kg s.c., summed deviations from mean of vehicle
[23] = FR5, per-infusion dose 0.25 mg/kg

Sequence of serotonin transporter (P31645 whole entry): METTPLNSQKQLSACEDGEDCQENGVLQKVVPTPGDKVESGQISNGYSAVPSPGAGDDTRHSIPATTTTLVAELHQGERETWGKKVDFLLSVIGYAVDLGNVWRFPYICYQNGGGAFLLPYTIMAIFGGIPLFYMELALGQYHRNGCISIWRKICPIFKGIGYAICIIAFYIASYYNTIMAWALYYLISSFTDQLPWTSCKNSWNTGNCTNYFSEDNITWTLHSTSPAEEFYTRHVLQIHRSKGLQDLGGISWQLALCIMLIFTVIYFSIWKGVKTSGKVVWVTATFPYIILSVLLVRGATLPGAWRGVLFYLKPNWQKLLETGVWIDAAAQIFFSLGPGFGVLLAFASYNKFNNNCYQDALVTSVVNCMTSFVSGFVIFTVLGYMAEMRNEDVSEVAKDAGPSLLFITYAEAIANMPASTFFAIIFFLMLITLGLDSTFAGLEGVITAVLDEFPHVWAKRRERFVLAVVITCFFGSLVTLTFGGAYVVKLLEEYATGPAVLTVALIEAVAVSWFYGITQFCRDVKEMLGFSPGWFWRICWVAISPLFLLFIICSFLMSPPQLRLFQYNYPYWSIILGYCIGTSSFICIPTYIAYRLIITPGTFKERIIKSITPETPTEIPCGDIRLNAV
Sequence of noradrenergic transporter (P23975 whole entry): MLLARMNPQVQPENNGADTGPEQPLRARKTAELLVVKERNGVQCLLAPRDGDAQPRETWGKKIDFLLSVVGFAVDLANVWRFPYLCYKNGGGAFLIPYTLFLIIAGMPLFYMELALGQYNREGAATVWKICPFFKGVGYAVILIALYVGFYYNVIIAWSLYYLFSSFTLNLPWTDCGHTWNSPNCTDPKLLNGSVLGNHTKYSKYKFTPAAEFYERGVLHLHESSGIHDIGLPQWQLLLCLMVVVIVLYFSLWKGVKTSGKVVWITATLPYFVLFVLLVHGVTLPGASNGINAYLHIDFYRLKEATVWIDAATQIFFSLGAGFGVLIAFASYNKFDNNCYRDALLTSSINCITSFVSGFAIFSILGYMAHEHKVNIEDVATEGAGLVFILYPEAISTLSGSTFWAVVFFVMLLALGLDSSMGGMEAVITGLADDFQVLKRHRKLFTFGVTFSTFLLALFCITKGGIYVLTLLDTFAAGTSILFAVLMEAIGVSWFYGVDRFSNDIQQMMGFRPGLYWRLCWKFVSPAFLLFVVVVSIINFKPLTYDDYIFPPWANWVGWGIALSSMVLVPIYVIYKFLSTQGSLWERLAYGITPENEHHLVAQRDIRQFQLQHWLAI

## CCCC(C(=O)c1ccc2c(c1)OCO2)N1CCCC1 (centres unmarked) [MDPV, 1-(1,3-benzodioxol-5-yl)-2-(1-pyrrolidinyl)-1-pentanone]
DAT/SERT
  DAT/SERT inhibition ratio: > 100
Male Wistar rats [1]; 0.5 mg/kg s.c.
  time for which stereotypy scores were higher than vehicle: 15 min
Male Wistar rats [1]; 0.5 mg/kg s.c., baseline immediately post-injection
  time for which stereotypy scores were higher than baseline: 15 min
Male Wistar rats [1]; 1.0 mg/kg s.c.
  time for which stereotypy scores were higher than vehicle: 60 min
Male Wistar rats [1]; 1.0 mg/kg s.c., baseline immediately post-injection
  time for which stereotypy scores were higher than baseline: 60 min
Male Wistar rats [1]; 3.2 mg/kg s.c.
  time for which stereotypy scores were higher than vehicle: entire session
Male Wistar rats [1]; 3.2 mg/kg s.c., baseline immediately post-injection
  time bins in which stereotypy scores were higher than baseline: 15 to 135 min
Male Wistar rats [1]; 5.6 mg/kg s.c.
  time for which stereotypy scores were higher than vehicle: entire session
Male Wistar rats [2]; per-infusion dose 0.01 mg/kg
  number of correct lever presses (M): 53
  post-reinforcement pause duration (M): 225 s
Male Wistar rats [2]; per-infusion dose 0.05 mg/kg
  number of correct lever presses (M): 610
  post-reinforcement pause duration (M): 110 s
Male Wistar rats [2]; per-infusion dose 0.10 mg/kg
  number of correct lever presses (M): 933
  post-reinforcement pause duration (M): 179 s
Male Wistar rats [2]; per-infusion dose 0.50 mg/kg
  number of correct lever presses (M): 286
  post-reinforcement pause duration (M): 820 s
Male Wistar rats [2]; per-infusion dose 0.5 mg/kg, all except 2 sessions
  time to reach breakpoint: ≤ 5 h
Male Wistar rats [2]; per-infusion doses at or below 0.1 mg/kg, all rats
  time to reach breakpoint: less than 3 hrs
Male Wistar rats [2]; more responding under optimal dose under a progressive-ratio schedule
  efficacy on drug-reinforced behavior compared with METH: greater efficacy
Male Wistar rats [3]
  effect on body temperature: modestly hyper-thermic; also recorded: negligible effect on temperature
Male Wistar rats [3]; [16]
  body temperature compared to pre-injection baseline: higher
Male Wistar rats [3]; additional data, not shown
  effect on rat body temperature at TA of 30°C: fails to significantly elevate rat body temperature
Male Wistar rats [3]; s.c., TA 23±1 °C, 180-min post-injection time bin
  body temperature after 1.0 mg/kg compared with 5.6 mg/kg: higher
Monoamine release
  activity as monoamine releaser: ineffective as a monoamine releaser
Male Wistar rats [4]
  average cumulative dose when post-session stereotypy was not observed (M): 0.6 mg/kg per one hour session
  average cumulative dose when post-session stereotypy was observed (M): 1.4 mg/kg per one hour session
[5]
  IC50: 0.031 µM
[6]
  IC50: 0.026 µM
[7]
  IC50: 3.35 µM
Serotonin transporter
  Ki: 1.54 µM
[8]
  Ki: 0.166 µM
Male Wistar rats [9]; [17]
  infusion rate (M): 35 infusions/hour
  post-reinforcement pause length (M): 48 s
Male Wistar rats [9]; [18]
  infusion rate (M): 13 infusions/hour
  post-reinforcement pause length (M): 107 s
Male Wistar rats [9]; [19]
  infusion rate (M): 8 infusions/hour
  post-reinforcement pause length (M): 223 s
Male Wistar rats [9]; [20]
  infusion rate (M): 4 infusions/hour
  post-reinforcement pause length (M): 572 s
Male Wistar rats [9]; more responding under lowest dose under fixed-ratio schedule
  potency on drug-reinforced behavior compared with METH: greater potency
Sprague-Dawley rats
  doses at which stereotypies were reported: above 0.3 mg/kg
[10]
  IC50: 0.044 µM
[11]
  IC50: 0.0041 µM
mice
  doses after which stereotypies are exhibited: 1 to 3 mg/kg
Male Wistar rats [12]; [21]
  locomotor activity compared with vehicle: higher
Male Wistar rats [12]; [22]
  AUC for activity, MDPV vs METH: significantly higher for MDPV than METH
Male Wistar rats [12]
  resolution of high-dose suppression of locomotion: 120–150 minutes post-injection
  duration of significant low-dose locomotor stimulation: 90 minutes post-injection
  maximal increase of activity over baseline and/or vehicle: about 4 fold
[13]
  IC50: 9.3 µM
Male Wistar rats [14]
  infusion rate (M): 19 inf/hr
  lever discrimination (M): 86%
  self-administered drug, Max: 5.8 mg/kg/h
  self-administered drug, Mean: 0.9 mg/kg/h
  level of drug intake from session to session: ~ 1 mg/kg/hr
Male Wistar rats [14]; for most rats
  reward-lever selectivity: > 80%

## CN[C@@H](C)Cc1ccccc1 [METH, d-methamphetamine, reference compound]
DAT/SERT
  DAT/SERT inhibition ratio: > 10
Male Wistar rats [2]; per-infusion dose 0.01 mg/kg
  number of correct lever presses (M): 60
  post-reinforcement pause duration (M): 276 s
Male Wistar rats [2]; per-infusion dose 0.05 mg/kg
  number of correct lever presses (M): 74
  post-reinforcement pause duration (M): 103 s
Male Wistar rats [2]; per-infusion dose 0.10 mg/kg
  number of correct lever presses (M): 250
  post-reinforcement pause duration (M): 113 s
Male Wistar rats [2]; per-infusion dose 0.25 mg/kg
  number of correct lever presses (M): 135
  post-reinforcement pause duration (M): 490 s
Male Wistar rats [3]
  effect on body temperature: increased monotonically
Male Wistar rats [3]; [16]
  body temperature compared to pre-injection baseline: higher
Male Wistar rats [3]; 5.6 mg/kg s.c., 60- to 150-min time bins
  body temperature compared to vehicle: higher
Male Wistar rats [3]; 5.6 mg/kg s.c., 60- to 90-min post-injection time bins
  body temperature compared to pre-injection baseline: higher
Male Wistar rats [3]; [22]
  AUC for body temperature, METH vs MDPV: higher for METH than for MDPV
Male Wistar rats [3]; 20±2 °C TA
  average body temperature as a function of dose: did not vary as a function of drug condition
Male Wistar rats [3]; TA of 25±2 °C, doses in mg/kg s.c.
  average body temperature as a function of dose: 5.6 > 1.0 > vehicle
[15]
  binding affinity: low affinity binding
Male Wistar rats [9]; [17]
  infusion rate (M): 8 infusions/hour
  post-reinforcement pause length (M): 94 s
Male Wistar rats [9]; [18]
  infusion rate (M): 6 infusions/hour
  post-reinforcement pause length (M): 106 s
Male Wistar rats [9]; [19]
  infusion rate (M): 5 infusions/hour
  post-reinforcement pause length (M): 170 s
Male Wistar rats [9]; [23]
  infusion rate (M): 4 infusions/hour
  post-reinforcement pause length (M): 162 s
Male Wistar rats [12]; [21]
  locomotor activity compared with vehicle: higher
Male Wistar rats [12]; 5.6 mg/kg s.c., 60–150-min post-injection time bins
  locomotor activity compared with vehicle: lower
Male Wistar rats [12]
  resolution of high-dose suppression of locomotion: 150–180 minutes post-injection
  duration of significant low-dose locomotor stimulation: 120 minutes post-injection
  maximal increase of activity over baseline and/or vehicle: about 4 fold
Male Wistar rats [14]
  infusion rate (M): 8 inf/hr
  lever discrimination (M): 83%
  self-administered drug, Max: 1.15 mg/kg/h
  self-administered drug, Mean: 0.4 mg/kg/h
  level of drug intake from session to session: ~ 0.5 mg/kg/hr

## COC(=O)[C@H]1[C@@H](OC(=O)c2ccccc2)C[C@@H]2CC[C@H]1N2C [cocaine]
DAT/SERT
  DAT/SERT inhibition ratio: 3.1
